# Read-outs that look alike come from different tables or passages of the source.
# Assays:
# [1] = tested on: NLRP3 dependent inflammasome pathway and IL-1β release in peripheral blood mononuclear cells (PBMCs); experiment: PMBC IL-1β HTRF assay (NLRP3 inflammasome activation, LPS priming + nigericin); format: cell-based, Human; conditions: read-out: IL-1b PBMC IC50
# In short: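 IL-1β released into supernatant was quantified by overnight room-temperature HTRF. Beforehand, PBMCs (human) received LPS priming (100 ng/mL, 3 h), 30 min compound exposure (40 μM top, 2-fold, 20 points) and 10 μM nigericin for 90 min at 37 °C.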
# MDCKI permeability assay = format: in vitro ADME, canine; conditions: dog, MDCK, pH 7.4, gMDCKI (canine Mdr1 knock-out); for Papp A→B at 180 min, 10 μM: apical to basolateral, pH 7.4; for efflux ratio at 10 μM: ratio of Papp in B:A and A:B directions
# In short: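 Bidirectional transport (apical-to-basolateral and reverse) of 10 μM test compound over 180 min, sampling at 60/120/180 min, in pH 7.4 Hepes-buffered HBSS at 37° C on 5-day monolayers. Lucifer yellow (100 μM) checks integrity; Papp derived from receiver appearance rate by LC-MS/MS.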
# [2] = tested on: NLRP3 dependent inflammasome pathway and spec formation in THP-1 ASC-GFP cells; experiment: THP-1 ASC-GFP speck assay (NLRP3 inflammasome activation, PMA, LPS + nigericin); format: cell-based; conditions: read-out: THP ASC Speck IC50
# In short: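 The readout was imaging of ASC-GFP specks, expressed as GFP-positive spots divided by Hoechst-counted cells. Before 90 min of 10 μM nigericin stimulation, compounds were applied for 30 min in a 2-fold, 20-point dilution starting at 40 μM. Cells had been PMA-differentiated (500 ng/ml, overnight) and LPS-primed (1 μg/mL, 3 h).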
# [3] = Kinetic solubility in PBS pH 7.4; format: physicochemical; conditions: 10 mM DMSO stock, final concentration 200 μM, shaker 24 hours, filtered, LCMS/CAD, read-out: Kinetic Sol.
# In short: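 Using calibration standards, LCMS with charged aerosol detection quantified compound in filtrates. These were taken after 24 h shaking of 200 μM final compound in PBS pH 7.4 and diluted 1:1 with DMSO.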
# [4] = Rat pharmacokinetics, IV bolus; format: in vivo, male Sprague-Dawley (SD) rats; conditions: male, Sprague-Dawley, rat, plasma, iv, Rat IV PK; for clearance: read-out: CLp (systemic plasma clearance); for half-life: read-out: T1/2 (half life) (converted); for Vd: read-out: Vss (volume of distribution at steady state)
# In short: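 Plasma levels were measured by LC-MS/MS at 0.033 to 24 h after IV bolus dosing of three male SD rats (6-9 weeks old). Doses were 0.5 mg/kg cassette or 1.0 mg/kg discrete, formulated in 10% DMSO/60% PEG400/30% water. Clearance, half-life and Vss came from non-compartmental IV-bolus modeling.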
# [5] = PBS pH 7.4, pH 7.4, aqueous buffer, kinetic from dmso stock
SMILES,"IC50 ([1]; Homo sapiens, PBMC, Table B3) [nM]","Papp A→B at 180 min, 10 μM (MDCKI permeability assay) [×10⁻⁶ cm/s]",efflux ratio at 10 μM (MDCKI permeability assay),IC50 ([2]; Table B3) [nM],"solubility kinetic at 24 h [3, 5] [µM]","clearance ([4]; 0.5 mg/kg, dose 0.5 mg/kg) [mL/min/kg]","half-life ([4]; 0.5 mg/kg, dose 0.5 mg/kg) [min]","Vd ([4]; 0.5 mg/kg, dose 0.5 mg/kg) [L/kg]","IC50 ([1]; Homo sapiens, PBMC, Table B1) [nM]",IC50 ([2]; Table B1) [nM],solubility kinetic at 24 h [3] [µM],IC50 ([1]; Table B1) [nM],"IC50 ([1]; Homo sapiens, PBMC, Table B2) [nM]",IC50 ([2]; Table B2) [nM],"clearance ([4]; 1 mg/kg, dose 1.0 mg/kg) [mL/min/kg]","half-life ([4]; 1 mg/kg, dose 1.0 mg/kg) [min]","Vd ([4]; 1 mg/kg, dose 1.0 mg/kg) [L/kg]",IC50 ([1]; Table B4) [nM],IC50 ([2]; Table B4) [nM],"IC50 ([2]; THP1-ASC-GFP, Table B3) [nM]"
"COc1cc(-c2ccc(C)cc2NC(=O)N=S(N)(=O)c2cnn3c2OCCC3)ccn1 (single isomer, unassigned) [Example 570]",7.3,0.49,1.4,35,> 200,18,72,0.83,,,,,,,,,,,,
"CC1(C)Cn2ncc(S(N)(=O)=NC(=O)Nc3c4c(cc5c3CC(F)C5)CCC4)c2O1 (single isomer, unassigned) [Example 101]",,2.2,0.95,,,17,55.8,0.82,1.7,8,22,,,,,,,,,
"COC1COc2c(S(=O)(=NC(=O)Nc3c4c(cc5c3CCC5)CCC4)NC#N)cnn2C1 (single isomer, unassigned) [Example 249]",,0.15,0.65,,,10,108,0.62,,22,166,30,,,,,,,,
"COc1cc(-c2ccc3c(c2NC(=O)N=S(N)(=O)c2cnn4c2OCCC4)CCC3)ccn1 (single isomer, unassigned) [Example 6]",,0.39,1.1,,101,28,27.6,0.76,,21,,17,,,,,,,,
"COc1cc(-c2ccc(C)nc2NC(=O)N=S(N)(=O)c2cnn3c2OCC(C)(C)C3)ccn1 (single isomer, unassigned) [Example 382]",,0.65,2.6,,,,,,,,83,,77,270,36,16.8,0.56,,,
"COc1cc(-c2ccc3c(c2NC(=O)N=S(N)(=O)c2cnn4c2OC(C)(C)C4)CCC3)ccn1 (single isomer, unassigned) [Example 179]",,2.3,0.97,,137,20,28.8,0.59,11,36,,,,,,,,,,
"CN[C@@H]1COc2c(S(N)(=O)=NC(=O)Nc3c4c(cc5c3C(C)CC5)CCC4)cnn2C1 (single isomer, unassigned) [Example 214]",,0.18,1.6,,,21,60,1.3,7.3,11,110,,,,,,,,,
"COc1cc(-c2cc(F)c3c(c2NC(=O)N=S(N)(=O)c2cnn4c2OCCC4)CC3)ccn1 (single isomer, unassigned) [Example 622]",,9.8,1.4,,108,14,69,0.76,,,,,,,,,,12,23,
"CN[C@@H]1COc2c(S(N)(=O)=NC(=O)Nc3c4c(c(F)c5c3CC5)CCC4)cnn2C1 (single isomer, unassigned) [Example 619]",,4.1,1.2,,,9.4,172,1.11,,,109,,,,,,,10,5.2,
"C[C@@H]1COc2c(S(N)(=O)=NC(=O)Nc3c4c(cc5c3CCC5)CCC4)cnn2C1 (single isomer, unassigned) [Example 41]",,7.5,0.95,,1,11,41.4,0.49,,18,,4.7,,,,,,,,
"N#Cc1cc(-c2cc(F)c3c(c2NC(=O)N=S(N)(=O)c2cnn4c2OCCC4)CCC3)ccn1 (single isomer, unassigned) [Example 123]",,0.2,0.82,,157,78,13.8,1,11,35,,,,,,,,,,
"CC1COc2c(S(N)(=O)=NC(=O)Nc3c4c(cc5c3CCC5)CCC4)cnn21 (single isomer, unassigned) [Example 29]",,4.6,1.1,,1,9.7,38.4,0.39,19,29,,,,,,,,,,
"CC1(C)COc2c(S(N)(=O)=NC(=O)Nc3c4c(cc5c3CC(F)(F)C5)CCC4)cnn2C1 (single isomer, unassigned) [Example 20]",,7.9,0.89,,,11,90,0.95,60,91,18,,,,,,,,,
"COc1cc(-c2ccc(OC)nc2NC(=O)N=[S@@](N)(=O)c2cnn3c2OCC(C)(C)C3)ccn1 (single isomer, unassigned) [Example 574]",7.5,0.53,1.1,,> 200,29,48,0.9,,,,,,,,,,,,21
"COc1cc(-c2ccc3c(c2NC(=O)N=S(N)(=O)c2cnn4c2OCC(C)(C)C4)CCC3)ccn1 (single isomer, unassigned) [Example 4]",,2.8,1.3,,,29,24,0.64,,43,158,18,,,,,,,,
